Key:
[1] = compound: CC(C)(C)c1cc(NC(=O)Nc2ccc(-c3cn4c(n3)sc3cc(OCCN5CCOCC5)ccc34)cc2)no1 [Quizartinib]; test: relative viability (nuclei count vs DMSO), 5 days (fraction); higher = more cells survive
Procedure, shortened: (§1)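 On vehicle-anchored 1536-well plates, lung cancer cell lines held overnight at 37 °C were pinned with five library-drug doses (not always all listed) spaced by √10. With no medium change over 5 days, they were then fixed, permeabilised and Hoechst-stained in one step and imaged at 4×. MetaXpress counted nuclei, and viability is the median across plates of treated-well over vehicle-well nuclei. Acceptance needed control CV below 25% and at least one doubling.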

[2] = compound: COCC[n+]1c2c(n(Cc3cnccn3)c1C)C(=O)c1ccccc1C2=O [YM155]; test: as above
Procedure, shortened: as §1

Cell Line	relative viability ([1]; 0.001 µM)	relative viability ([1]; 0.003162 µM)	relative viability ([1]; 0.01 µM)	relative viability ([1]; 0.03162 µM)	relative viability ([1]; 0.1 µM)	relative viability ([2]; 0.002 µM)	relative viability ([2]; 0.006325 µM)	relative viability ([2]; 0.02 µM)	relative viability ([2]; 0.06325 µM)
NCI-H2342	0.953	0.992	1.02	0.88	1.06	0.947	0.997	0.996	0.949
CAL-12T	0.92	1.06	1.05	0.821	1.11	0.928	0.998	1.08	0.719
NCI-H1395	0.93	0.949	0.841	0.811	1.16	0.898	0.946	1.12	0.985
NCI-H1299	0.949	1.01	1.02	1.03	1.03	0.984	0.977	1.01	1
NCI-H1703	0.847	0.527	0.256	0.264	0.316	0.808	0.807	0.767	0.444
HCC-15	0.842	1	0.978	0.957	0.963	0.928	1.11	0.975	1.02
SW 900	0.823	1.12	0.745	0.803	0.994	0.71	0.828	0.869	0.729
NCI-H661	0.883	0.988	0.991	1.01	0.948	0.982	0.957	0.991	0.909
NCI-H647	0.794	0.946	1.09	0.855	1.09	0.857	0.89	0.925	0.538
H3255	0.822	0.964	0.969	1.03	1.01	0.953	0.998	1.01	0.929
NCI-H2405	0.986	1.03	0.955	0.958	1.06	0.952	0.903	0.956	0.595
NCI-H1666	0.86	1.01	1	0.845	1.02	0.932	1	1.02	0.918
NCI-H650	0.849	0.863	0.851	0.833	0.967	0.953	0.88	1.01	0.909
COR-L23	0.952	0.939	0.992	0.979	1.05	0.988	0.912	0.689	0.281
NCI-H1734	0.924	0.959	1.03	0.943	1.01	0.995	0.956	1.01	1.1
UMC-11	0.723	0.945	0.983	0.966	0.988	0.889	0.998	1.04	0.959
NCI-H596	1.05	1.03	0.99	0.875	1.04	0.962	0.989	1.15	1.06
NCI-H2228	0.856	0.854	1.15	1.13	0.927	0.834	0.887	1.02	1.11
EPLC-272H	0.878	1.08	1.03	1.04	0.761	0.883	0.989	1.01	1.15
RERF-LC-KJ	0.954	0.926	1.03	0.99	0.915	1	0.973	1.01	1.01
NCI-H1793	0.838	1.01	0.839	0.853	0.925	0.706	0.936	0.908	0.869
NCI-H727	0.7	0.899	0.883	0.83	0.96	0.932	0.933	0.967	1.04
SK-LU-1	0.88	0.861	1.11	0.999	1.06	0.86	1.06	1.07	0.91
PC-14	0.884	0.985	1.09	0.833	1.18	0.939	1.02	1.03	0.931
NCI-H1437	0.942	0.963	0.973	0.822	0.849	0.89	0.96	0.983	0.826

Cell Line	relative viability ([1]; 0.001 µM)	relative viability ([1]; 0.003162 µM)	relative viability ([1]; 0.01 µM)	relative viability ([1]; 0.03162 µM)	relative viability ([1]; 0.1 µM)	relative viability ([2]; 0.002 µM)	relative viability ([2]; 0.006325 µM)	relative viability ([2]; 0.02 µM)	relative viability ([2]; 0.06325 µM)
ABC-1	0.771	0.825	0.817	0.673	0.913	0.707	0.61	0.396	0.219
EBC-1	0.891	0.871	0.981	0.922	0.977	0.954	0.971	1.07	1
SK-MES-1	0.944	0.96	1.09	0.732	0.924	0.956	1.02	0.942	0.692
LK-2	0.943	0.891	1.02	0.944	1.15	0.893	1.06	1.03	1.16
NCI-H2085	0.95	0.939	1.02	0.943	0.976	0.954	0.986	0.922	0.636
NCI-H2087	0.85	0.784	1.24	1.09	1.11	1.07	1.03	1.1	0.856
NCI-H2347	0.961	1.06	1.07	0.965	1.12	0.928	0.994	1.07	0.868
HOP-62	0.843	0.954	1.01	1.1	0.979	0.971	0.93	1.06	0.93
SW 1573	0.87	0.971	1.09	0.481	1.08	1.02	0.939	0.803	0.394
NCI-H1944	0.938	0.918	0.889	0.918	0.944	0.957	0.889	1.02	1.03
IA-LM	0.889	0.992	1.11	0.924	0.933	0.864	0.969	1.04	0.764
HCC-44	0.963	0.981	0.888	1	0.858	0.986	1.03	0.988	0.978
NCI-H460	0.811	0.957	1.02	0.78	0.942	0.984	1.02	0.997	0.988
NCI-H522	0.874	1.09	1.04	0.901	0.97	0.913	0.923	1.08	0.997
NCI-H1993	0.948	1	1.02	1.04	1.11	0.904	0.927	0.771	0.577
LOU-NH91	0.954	1.12	0.965	0.857	1.14	0.958	1.01	1.02	1.07
LCLC-103H	0.87	0.983	0.911	0.994	0.971	0.996	0.941	0.932	1.02
201T	1.01	1.01	0.987	0.98	0.934	0.922	1.01	1.01	0.998
EKVX	0.704	1	0.99	0.935	1.05	0.927	1.07	1.01	0.857
NCI-H1792	0.712	0.987	0.811	0.853	0.924	0.754	0.884	0.983	0.957
NCI-H1651	0.88	0.885	1.06	0.924	0.988	0.929	0.992	0.974	0.998
LU99A	0.889	0.906	1.05	1.09	0.842	1.01	1.01	0.984	0.938
LC-2-ad	0.827	1.02	0.972	0.863	0.892	0.914	0.978	0.972	0.913
A-427	0.771	0.982	0.979	0.922	1.05	0.883	0.951	1.03	0.941
NCI-H2009	0.903	0.937	0.995	1.02	0.96	0.976	0.992	1.02	0.836

Cell Line	relative viability ([1]; 0.001 µM)	relative viability ([1]; 0.003162 µM)	relative viability ([1]; 0.01 µM)	relative viability ([1]; 0.03162 µM)	relative viability ([1]; 0.1 µM)	relative viability ([2]; 0.002 µM)	relative viability ([2]; 0.006325 µM)	relative viability ([2]; 0.02 µM)	relative viability ([2]; 0.06325 µM)
A549	0.751	0.976	0.928	0.884	1.05	1.02	0.984	0.995	0.906
LCLC-97TM1	0.771	0.968	0.918	0.964	1	0.791	0.955	1.04	0.957
BEN	0.906	0.982	0.94	0.813	0.972	0.899	0.972	1.09	1.11
NCI-H1623	0.845	1.12	0.905	0.977	1.09	0.934	1.29	1.02	1.02
NCI-H1650	0.877	0.976	0.918		1	0.867	0.921	0.863	0.739
EMC-BAC-2	0.919	0.976	0.927		1.05	0.883	0.971	1.09	0.808
NCI-H520	0.73	0.867	0.96	0.903	0.921	1.01	1.03	1.05	1.17
NCI-H1355	0.924	0.966	0.876	1	1.02	0.927	1.01	1.01	1.08
HCC-366	0.978	1.04	1.06	1.04	1.02	1.05	0.993	1.01	1.06
NCI-H1563	1	0.889	0.989	0.646	0.949	0.971	0.966	1.07	0.983
NCI-H1915	0.877	0.925	0.865	0.998	1.02	0.888	0.994	0.997	0.817
HARA	0.946	0.924	1.05	0.954	0.941	0.823	1.15	1.05	1.09
NCI-H358	0.892	0.979	0.841		0.873	0.831	0.954	1.07	0.34
PC-3 [JPC-3]	0.978	1.02	1.04	0.852	1.08	1.01	1.07	1.1	1
LXF-289	0.924	0.976	1.05	0.957	0.998	0.998	1.01	1.04	0.973
NCI-H2170	0.97	0.944	1.04	1.04	0.995	0.922	1.05	0.936	1.05
NCI-H2126	0.981	1.01	1.01	1.05	1.08	0.972	1.03	0.991	1.05
NCI-H1755	0.866	0.958	0.996	1.07	0.99	0.973	0.996	0.968	1.03
HCC-827	0.943	1.04	0.978	1.03	1.09	0.986	1.05	1.03	1.11
Calu-6	0.902	0.982	1.05	0.879	1.02	0.992	0.996	0.557	0.186
NCI-H838	0.894	0.962	0.882	0.936	0.843	0.912	0.999	1.01	0.768
NCI-H3122	0.885	0.977	1.07	1.01	0.982	0.984	0.992	1.01	0.976
HCC-78	0.967	1.03	0.911	0.865	0.988	0.898	1.08	1.08	1.05
NCI-H322M	0.952	1.03	0.916	0.965	0.978	0.92	0.982	1	1.03

Reference: the supplement of paper PMC10307832
